{"source": "patent US7323490B2", "about": "“Pyrrole compounds and uses thereof” (Ambit Biosciences Corporation, priority 2003, dated 2008)", "key": {"[1]": {"target": "T1, CLB2 (Homo sapiens, UniProt P22676)", "T1 construct": "made in house; host or cells: T7 phage amplified in E. coli", "T1 sequence (P22676 1-271)": "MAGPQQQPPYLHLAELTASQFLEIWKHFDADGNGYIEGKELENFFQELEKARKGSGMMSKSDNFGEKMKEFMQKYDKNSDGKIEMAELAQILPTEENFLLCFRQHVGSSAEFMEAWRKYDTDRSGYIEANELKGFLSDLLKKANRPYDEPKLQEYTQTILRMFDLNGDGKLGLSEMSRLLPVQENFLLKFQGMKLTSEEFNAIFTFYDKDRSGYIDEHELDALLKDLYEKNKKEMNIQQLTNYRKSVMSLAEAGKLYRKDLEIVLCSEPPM", "assay": "T7 phage display competition binding assay (immobilized atorvastatin), CLB2", "conditions": "soluble competitor vs atorvastatin-coated affinity matrix; T7 phage displaying CLB2", "text": "(§1) The T7 phage displaying human PDE6D and CLB2 were obtained following the procedure of WO 01/18234, published Mar. 15, 2001, and U.S. patent applications Ser. No. 10/115,442, “Phage Display Affinity Filter and Forward Screen,” filed Apr. 2, 2002 and Ser. No. 10/214,654, “Uncoupling DNA Insert Propagation and Protein Display,” filed Aug. 7, 2002. […] The phage eluate was then amplified by growth in E. coli and the affinity enrichment procedure was repeated.\n(§2) The dissociation constants, Kd's, for the interaction between the pyrrole compounds and the novel targets were obtained following the procedure of the co-pending patent applications U.S. Ser. Nos. 10/115,442, “Phage Display Affinity Filter and Forward Screen,” filed Apr. 2, 2002 and 60/480,587, “Protein Family Profiling Tool and Methods,” filed Jun. 20, 2003."}, "[2]": {"target": "T2, PDE6D (Homo sapiens, UniProt O43924)", "assay": "T7 phage display competition binding assay (immobilized atorvastatin), PDE6D", "design": "made in house; host or cells: T7 phage amplified in E. coli", "conditions": "soluble competitor vs atorvastatin-coated affinity matrix; T7 phage displaying human PDE6D", "text": "as §1, §2"}, "[3]": {"target": "T3, HMG-CoA reductase (Homo sapiens, UniProt P04035)", "T3 sequence (P04035 1-888)": "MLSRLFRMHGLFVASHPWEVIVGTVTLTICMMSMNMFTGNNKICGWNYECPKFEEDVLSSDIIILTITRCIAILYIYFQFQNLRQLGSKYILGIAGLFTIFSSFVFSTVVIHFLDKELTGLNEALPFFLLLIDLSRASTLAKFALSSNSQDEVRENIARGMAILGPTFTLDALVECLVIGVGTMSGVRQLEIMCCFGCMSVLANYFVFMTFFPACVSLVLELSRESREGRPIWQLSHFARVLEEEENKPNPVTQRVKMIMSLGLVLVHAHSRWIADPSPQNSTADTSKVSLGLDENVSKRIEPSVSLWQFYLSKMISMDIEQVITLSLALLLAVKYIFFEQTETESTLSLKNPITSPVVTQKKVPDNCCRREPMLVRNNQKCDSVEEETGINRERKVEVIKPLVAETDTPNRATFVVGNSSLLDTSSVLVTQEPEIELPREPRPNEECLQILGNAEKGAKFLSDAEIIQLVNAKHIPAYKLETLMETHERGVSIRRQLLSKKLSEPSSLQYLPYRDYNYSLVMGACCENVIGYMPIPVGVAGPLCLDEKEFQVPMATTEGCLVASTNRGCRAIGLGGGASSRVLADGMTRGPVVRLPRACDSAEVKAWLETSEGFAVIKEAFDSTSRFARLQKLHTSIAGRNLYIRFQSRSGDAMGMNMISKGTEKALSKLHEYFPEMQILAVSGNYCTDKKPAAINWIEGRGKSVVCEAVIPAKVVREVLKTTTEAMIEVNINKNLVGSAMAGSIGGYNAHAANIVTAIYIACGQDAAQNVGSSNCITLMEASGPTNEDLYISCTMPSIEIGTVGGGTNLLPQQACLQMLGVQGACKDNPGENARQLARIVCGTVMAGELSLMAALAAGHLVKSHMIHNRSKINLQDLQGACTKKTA", "assay": "enzymatic activity-based HMG-CoA reductase assay", "type": "biochemical", "conditions": "concentrations up to 4 μM", "description": "In addition, compounds 781430, 781066, 780780, 780754, 779974, 781456, 782236, 782756, 783250 and 780520 were tested in enzymatic activity-based HMG-CoA reductase assays. […] Blank cells indicate there was no detectable interaction while the “nd” designation indicates the Kd was not determined."}, "[4]": {"target": "T2, PDE6D", "assay": "phage-based competition binding screen at 2 μM", "design": "made in house; host or cells: phage", "conditions": "2 μM competitor, duplicate", "description": "Forty-four molecules were screened for PDE6D binding activity in a standard phage-based competition binding assay, as described in co-pending U.S. patent applications Ser. No. 10/115,442, filed 2 Apr. 2002, and Ser. No. 10/406,797 filed on 2 Apr. 2003 (or PCT International Application PCT/US03/10247 filed 2 Apr. 2003). All compounds were screened in duplicate (duplicate sets of bars) at a concentration of 2 μM."}}}
{"molecule": "CC(C)c1c(C(=O)Nc2ccccc2)c(-c2ccccc2)c(-c2ccc(F)cc2)n1CCO", "note": "[Compound 780078]", "values": [{"measurement": "Kd", "setting": "[1]", "result": 2340, "unit": "nM"}, {"measurement": "Kd", "setting": "[2]", "result": 488, "unit": "nM"}]}
{"molecule": "CCCCCn1c(-c2ccc(F)cc2)c(-c2ccccc2)c(C(=O)Nc2ccccc2)c1C(C)C", "note": "[Compound 782366]", "values": [{"measurement": "Kd", "setting": "[2]", "result": 805, "unit": "nM"}]}
{"molecule": "CCOC(=O)CCn1c(-c2ccc(F)cc2)c(-c2ccccc2)c(C(=O)Nc2ccccc2)c1C(C)C", "note": "[Compound 780026]", "values": [{"measurement": "Kd", "setting": "[2]", "result": 6550, "unit": "nM"}]}
{"molecule": "CC(C)c1c(C(=O)Nc2ccccc2)c(-c2ccccc2)c(-c2ccc(F)cc2)n1CC(O)CC(=O)O", "note": "(centres unmarked) [Compound 783770]", "values": [{"measurement": "Kd", "setting": "[1]", "result": 335, "unit": "nM"}, {"measurement": "Kd", "setting": "[2]", "result": 1100, "unit": "nM"}]}
{"molecule": "CC(C)c1c(C(=O)Nc2ccccc2)c(-c2ccccc2)c(-c2ccc(F)cc2)n1Cc1ccccc1", "note": "[Compound 780000]", "values": [{"measurement": "Kd", "setting": "[2]", "result": 598, "unit": "nM"}]}
{"molecule": "CC(C)c1c(C(=O)Nc2ccccc2)c(-c2ccccc2)c(-c2ccc(F)cc2)n1CCCCCCO", "note": "[Compound 780702]", "values": [{"measurement": "Kd", "setting": "[1]", "result": 2000, "unit": "nM"}, {"measurement": "Kd", "setting": "[2]", "result": 114, "unit": "nM"}]}
{"molecule": "CC(C)c1c(C(=O)Nc2ccccc2)c(-c2ccccc2)c(-c2ccc(F)cc2)n1CCCN1CCCC1=O", "note": "[Compound 780520]", "values": [{"measurement": "Kd", "setting": "[1]", "result": 1850, "unit": "nM"}, {"measurement": "inhibition of the activity of HMG-CoA reductase", "setting": "[3]", "result": "none of the tested compounds inhibited"}, {"measurement": "fraction of PDE6D-displaying phage bound to immobilized atorvastatin (screen outcome)", "setting": "[4]", "result": "candidate lead compounds"}, {"measurement": "Kd", "setting": "[2]", "result": 44, "unit": "nM"}]}
{"molecule": "COc1ccc(-c2[nH]c(C(C)C)c(C(=O)Nc3ccccc3)c2-c2ccccc2)cc1", "note": "[Compound 780988]", "values": [{"measurement": "Kd", "setting": "[1]", "result": 6000, "unit": "nM"}, {"measurement": "Kd", "setting": "[2]", "result": 430, "unit": "nM"}]}
{"molecule": "CC(C)c1c(C(=O)Nc2ccccc2)c(-c2ccccc2)c(-c2ccc(F)cc2)n1CCS(=O)O", "note": "[Compound 783666]", "values": [{"measurement": "Kd", "setting": "[1]", "result": 1850, "unit": "nM"}]}
{"molecule": "CC(C)c1c(C(=O)Nc2ccccc2)c(-c2ccccc2)c(-c2ccc(F)cc2)n1CC[C@@H]1C[C@H](CC(=O)O)OC(C)(C)O1", "note": "[Compound 782964]", "values": [{"measurement": "Kd", "setting": "[1]", "result": 9000, "unit": "nM"}, {"measurement": "Kd", "setting": "[2]", "result": 685, "unit": "nM"}]}
{"molecule": "CC(C)c1c(C(=O)Nc2ccccc2)c(-c2ccccc2)c(-c2ccc(F)cc2)n1CCCCCCC(=O)O", "note": "[Compound 780728]", "values": [{"measurement": "Kd", "setting": "[1]", "result": 1650, "unit": "nM"}, {"measurement": "Kd", "setting": "[2]", "result": 350, "unit": "nM"}]}
{"molecule": "CC(C)c1c(C(=O)Nc2ccccc2)c(-c2ccccc2)c(-c2ccc(F)cc2)n1C", "note": "[Compound 780104]", "values": [{"measurement": "Kd", "setting": "[1]", "result": 6070, "unit": "nM"}, {"measurement": "fraction of PDE6D-displaying phage bound to immobilized atorvastatin (screen outcome)", "setting": "[4]", "result": "candidate lead compounds"}, {"measurement": "Kd", "setting": "[2]", "result": 114, "unit": "nM"}]}
{"molecule": "CC(C)c1c(C(=O)Nc2ccccc2)c(-c2ccccc2)c(-c2ccc(F)cc2)n1CCOCCO", "note": "[Compound 780598]", "values": [{"measurement": "Kd", "setting": "[2]", "result": 300, "unit": "nM"}]}
{"molecule": "COCC(C(O)c1ccccc1)n1c(-c2ccc(F)cc2)c(-c2ccccc2)c(C(=O)Nc2ccccc2)c1C(C)C", "note": "(centres unmarked) [Compound 780910]", "values": [{"measurement": "Kd", "setting": "[1]", "result": 1000, "unit": "nM"}, {"measurement": "Kd", "setting": "[2]", "result": 280, "unit": "nM"}]}
{"molecule": "CC(C)c1c(C(=O)Nc2ccccc2)c(-c2ccccc2)c(-c2ccc(F)cc2)n1CCN1CCOCC1", "note": "[Compound 780052]", "values": [{"measurement": "Kd", "setting": "[1]", "result": 6000, "unit": "nM"}, {"measurement": "Kd", "setting": "[2]", "result": 387, "unit": "nM"}]}
{"molecule": "CCC(C)C(CO)n1c(-c2ccc(F)cc2)c(-c2ccccc2)c(C(=O)Nc2ccccc2)c1C(C)C", "note": "(centres unmarked) [Compound 780936]", "values": [{"measurement": "Kd", "setting": "[1]", "result": 3000, "unit": "nM"}, {"measurement": "Kd", "setting": "[2]", "result": 141, "unit": "nM"}]}
{"molecule": "CC(C)c1c(C(=O)Nc2ccccc2)c(-c2ccccc2)c(-c2ccc(F)cc2)n1[C@H](C)C(=O)OC(C)(C)C", "note": "[Compound 780650]", "values": [{"measurement": "Kd", "setting": "[1]", "result": 2100, "unit": "nM"}]}
{"molecule": "CC(C)c1c(C(=O)Nc2ccccc2)c(-c2ccccc2)c(-c2ccc(F)cc2)n1CC(=O)OC(C)(C)C", "note": "[Compound 780546]", "values": [{"measurement": "Kd", "setting": "[2]", "result": 880, "unit": "nM"}]}
{"molecule": "CC(=O)NCCn1c(-c2ccc(F)cc2)c(-c2ccccc2)c(C(=O)Nc2ccccc2)c1C(C)C", "note": "[Compound 780754]", "values": [{"measurement": "Kd", "setting": "[1]", "result": 1830, "unit": "nM"}, {"measurement": "inhibition of the activity of HMG-CoA reductase", "setting": "[3]", "result": "none of the tested compounds inhibited"}, {"measurement": "Kd", "setting": "[2]", "result": 58, "unit": "nM"}]}
{"molecule": "CC(C)c1c(C(=O)Nc2ccccc2)c(-c2ccccc2)c(-c2ccc(F)cc2)n1CCCCCO", "note": "[Compound 780676]", "values": [{"measurement": "Kd", "setting": "[1]", "result": 1890, "unit": "nM"}, {"measurement": "fraction of PDE6D-displaying phage bound to immobilized atorvastatin (screen outcome)", "setting": "[4]", "result": "candidate lead compounds"}, {"measurement": "Kd", "setting": "[2]", "result": 61, "unit": "nM"}]}
{"molecule": "CC(C)c1[nH]c(-c2ccccc2)c(-c2ccccc2)c1C(=O)Nc1ccccc1", "note": "[Compound 780858]", "values": [{"measurement": "Kd", "setting": "[1]", "result": 1640, "unit": "nM"}, {"measurement": "fraction of PDE6D-displaying phage bound to immobilized atorvastatin (screen outcome)", "setting": "[4]", "result": "candidate lead compounds"}, {"measurement": "Kd", "setting": "[2]", "result": 60, "unit": "nM"}]}
